Like-named read-outs stand apart in the source and are kept apart here.
Assays:
leukemia (P388SS) = assay type: in vivo, mouse; conditions: for % increase in survival time versus nontreated control: control = 100
Method: In an in vivo mouse study for leukemia (P388SS), carbendazim (2-carbonylaminobenzimidazole) was tested in combination with griseofulvin.

leukemia (P338) = assay type: in vivo; conditions: ten mice; for mean number of survival days: dosed 5 days, off 2, dosed 5, off 3
Method: Mice were randomly selected and divided into five groups of ten mice each: Group 1—a control group receiving canola oil but no drug treatment; Group 2—a treatment group receiving 125 mg of cytoxan (2-bis(2-chloroethyl)-amino-1-oxo-2-aza-5-oxophosphoridin) per kg of body weight; Group 3—a treatment group receiving 4000 mg of carbendazim per kg of body weight; Group 4—a treatment group receiving 2500 mg of carbendazim per kg of body weight; and Group 5—a treatment group receiving 1000 mg of carbendazim per kg of body weight. The five groups were infected with leukemia (P338). The diseased animals were dosed for five days, off two days, dosed again for another five days and off again for three days.

## COC1=CC(=O)C[C@@H](C)[C@]12Oc1c(Cl)c(OC)cc(OC)c1C2=O [Griseofulvin]
Leukemia (P388SS); griseofulvin 3000 mg/kg, carbendazim 0 mg/kg
  % increase in survival time versus nontreated control: 130%
Leukemia (P388SS); griseofulvin 4000 mg/kg, carbendazim 0 mg/kg
  % increase in survival time versus nontreated control: 165%
Leukemia (P388SS); griseofulvin 5000 mg/kg, carbendazim 0 mg/kg
  % increase in survival time versus nontreated control: 213%

## COC(=O)Nc1nc2ccccc2[nH]1 [carbendazim, 2-(methoxycarbonylamino)benzimidzole]
Leukemia (P388SS); griseofulvin 0 mg/kg, carbendazim 1000 mg/kg
  % increase in survival time versus nontreated control: 153%
Leukemia (P388SS); griseofulvin 0 mg/kg, carbendazim 2000 mg/kg
  % increase in survival time versus nontreated control: 190%
Leukemia (P388SS); griseofulvin 0 mg/kg, carbendazim 3000 mg/kg
  % increase in survival time versus nontreated control: 176%
Leukemia (P338); Group 3, 4000 mg carbendazim per kg, after infection with leukemia
  mean number of survival days: 17.3 days
Leukemia (P338); Group 4, 2500 mg carbendazim per kg
  mean number of survival days: 16.5 days
Leukemia (P338); Group 5, 1000 mg carbendazim per kg
  mean number of survival days: 14.1 days

## O=P1(N(CCCl)CCCl)NCCCO1 (centres unmarked) [cytoxan, 2-bis(2-chloroethyl)-amino-1-oxo-2-aza-5-oxophosphoridin, reference compound]
Leukemia (P388SS); positive control, 300 mg/kg (qdx1)
  deaths during the test period: no deaths
Leukemia (P338); Group 2, 125 mg cytoxan per kg, up to twenty one days after infection
  deaths after infection with leukemia: none died
